Data from patent US20250340522A1, “ALBICIDIN DERIVATIVES, THEIR USE AND SYNTHESIS” (priority 2022, published 2025).
Converted amounts (≈) assume the structure as drawn.

Assays:
[1] = tested on: E. Coli. (50% human serum); assay: MIC, microdilution assay in presence of 50% human serum; format: cell-based; conditions: Escherichia coli, 20 h, Gram-negativ
Method: E. coli BW25113, S. typhimurium TA100; Bacillus subtilis DSM10; and M. phlei DSM 750 and human serum
(§1) The tests were performed using the micro dilution method.
(§2) The determination of MIC values was performed according to the ninth edition of the Approved Standard M07-A9 (CLSI. Methods for Dilution Antimicrobial Susceptibility Tests for Bacteria That Grow Aerobically; Approved Standard-Ninth Edition. CLSI document M07-A9. Wayne, PA: Clinical and Laboratory Standards Institute; 2012.)
(§3) The test was carried out for different bacterial strains (E. coli DSM 1116, E. coli BW25113 [gram negative], B. subtilis DSM 10 [gram positive], M. luteus DSM 1790 [gram positive], S. typhimurium TA100 [gram negative]) and M. phlei DSM 750. 20 µL of cryo stock of each strain were inoculated in 20 mL of LB media (Lysogeny broth: 10 g/L peptone, 5 g/L yeast extract, 5 g/L NaCl) followed by incubation over night at 37° C., 200 rpm. The test inoculum was adjusted by the 0.5 McFarland Standard (OD625 from 0.08 to 0.1). Within 15 min of preparation, the adjusted inoculum suspension was diluted in MHBII media (BBL TM Mueller-Hinton Broth II, Becton, Dickinson and Company, New Jersey/USA) so that each well contained approximately 5×10^5 CFU/mL in a final volume of 100 μL. 95 μL of the inoculum were applied per well and 5 μL of the (diluted) antibiotic substance were added.
(§4) Previously the dry antibiotic compounds were dissolved in DMSO (100%) with a concentration of 2560 μg/mL and the resulting stock solutions were further diluted in DMSO (100%). […] of each antibiotic dilution were applied to the microdilution tray to reach final concentrations of 64 μg/mL to 0.008 μg/ml. One row of each well plate was left as a growth control without antibiotic substances and another row of the microdilution tray was used as sterility control (only MHB II-media). The antimicrobial effect of the solvent (DMSO) was tested by adding 5 μL DMSO to several wells without antibiotics. Purity check and cell titer control were performed according to International Standard M07-A9 on Mueller-Hinton II Agar (Mueller Hinton II Broth, 15 g/L agar-agar). Both microdilution trays and agar plates were incubated at 37° C. for 20 h and subsequently analyzed visually.
(§5) The potency of an antibiotic is determined by the minimum inhibitory concentration (MIC). Contrary to intuition, a particularly low value is equated with a high potency.

[2] = tested on: S. typhimurium TA100; assay: MIC, microdilution assay (CLSI M07-A9); format: cell-based; conditions: Salmonella enterica, Gram-negativ, MHBII media, 37° C., 20 h, tested 64 to 0.008 μg/mL, read-out: MIC S. Typhimirium
Method: as §1, §2, §3, §4, §5

[3] = tested on: B. subtilis DSM 10; assay: MIC, microdilution assay (CLSI M07-A9); format: cell-based; conditions: Bacillus subtilis, DSM10, Gram-positiv, MHBII media, 37° C., 20 h, tested 64 to 0.008 μg/mL
Method: as §1, §2, §3, §4, §5

[4] = tested on: M. phlei DSM 750; assay: MIC, microdilution assay (CLSI M07-A9); format: cell-based; conditions: Mycolicibacterium phlei, DSM750, MHBII media, 37° C., 20 h, tested 64 to 0.008 μg/mL
Method: as §1, §2, §3, §4, §5

[5] = tested on: E. coli BW25113; assay: MIC, microdilution assay (CLSI M07-A9); format: cell-based; conditions: Escherichia coli, Gram-negativ, MHBII media, 37° C., 20 h, tested 64 to 0.008 μg/mL
Method: as §1, §2, §3, §4, §5

[6] = tested on: M. luteus DSM 1790; assay: MIC, microdilution assay (CLSI M07-A9); format: cell-based; conditions: Micrococcus luteus, DSM1790, Gram-positiv, MHBII media, 37° C., 20 h, tested 64 to 0.008 μg/mL
Method: as §1, §2, §3, §4, §5

[7] = tested on: Pantoea dispersa; conditions: humans infected with the pathogen; background statement; cited from earlier work
[8] = tested on: selected strains; assay: Antibacterial activity against selected strains, overall comparison with lead structure (Table 1); format: cell-based; conditions: D-variations in Table 1
Method: as §1, §2
The test was carried out for different bacterial strains (E. coli DSM 1116, E. coli BW25113 [gram negative], B. subtilis DSM 10 [gram positive], M. luteus DSM 1790 [gram positive], S. typhimurium TA100 [gram negative]) and M. phlei DSM 750. 20 µL of cryo stock of each strain were inoculated in 20 mL of LB media (Lysogeny broth: 10 g/L peptone, 5 g/L yeast extract, 5 g/L NaCl) followed by incubation over night at 37° C., 200 rpm. The test inoculum was adjusted by the 0.5 McFarland Standard (OD625 from 0.08 to 0.1). […]
Previously the dry antibiotic compounds were dissolved in DMSO (100%) with a concentration of 2560 μg/mL and the resulting stock solutions were further diluted in DMSO (100%). […] Both microdilution trays and agar plates were incubated at 37° C. for 20 h and subsequently analyzed visually.
The potency of an antibiotic is determined by the minimum inhibitory concentration (MIC). […]

| Molecule | MIC [1] [µg/mL] | MIC [2] [µg/mL] | MIC [3] [µg/mL] | MIC [4] [µg/mL] | MIC [5] [µg/mL] | MIC [6] [µg/mL] | Treatment outcome of Pantoea dispersa infection [7] | Activity compared with the lead structure (0) [8] |
| --- | --- | --- | --- | --- | --- | --- | --- | --- |
| COc1c(NC(=O)c2ccc(NC(=O)c3ccc(NC(=O)[C@H](Cc4c[nH]nn4)NC(=O)c4ccc(NC(=O)/C(C)=C/c5ccc(O)cc5)cc4)cc3Br)c(OC)c2O)ccc(C(=O)O)c1O [Compound 6] | 1 | 0.016 (≈ 0.0166 µM) | 0.125 (≈ 0.13 µM) | 1 (≈ 1.04 µM) | 0.016 (≈ 0.0166 µM) | 0.5 (≈ 0.519 µM) |  |  |
| COc1c(NC(=O)c2ccc(NC(=O)c3ccc(NC(=O)[C@H](Cc4c[nH]nn4)NC(=O)c4ccc(NC(=O)/C(C)=C/c5ccc(O)cc5)cc4)cc3I)c(OC)c2O)ccc(C(=O)O)c1O [Compound 8] | ≥ 8 | 0.031 (≈ 0.0307 µM) | 0.5 (≈ 0.495 µM) | 4 (≈ 3.96 µM) | 0.063 (≈ 0.0623 µM) | 4 (≈ 3.96 µM) |  |  |
| O=C(O)[C@H]1/C(=C/CO)O[C@@H]2CC(=O)N21 [Clavulanic acid] |  |  |  |  |  |  | ineffective |  |
| COc1c(NC(=O)c2ccc(NC(=O)c3c(F)cc(NC(=O)[C@H](Cc4c[nH]nn4)NC(=O)c4ccc(NC(=O)/C(C)=C/c5ccc(O)cc5)cc4)cc3F)c(OC)c2O)ccc(C(=O)O)c1O [Compound 2] | 0.5 | ≤ 0.016 | 0.125 (≈ 0.136 µM) | 1 (≈ 1.09 µM) | ≤ 0.016 | 0.25 (≈ 0.271 µM) |  | about as active as the lead structure (0) |
| COc1c(NC(=O)c2ccc(NC(=O)c3ccc(NC(=O)[C@H](Cc4c[nH]nn4)NC(=O)c4ccc(NC(=O)/C(C)=C/c5ccc(O)cc5)cc4)cc3C(F)(F)F)c(OC)c2O)ccc(C(=O)O)c1O [Compound 5] | ≥ 8 | 0.031 (≈ 0.0325 µM) | 4 (≈ 4.2 µM) | 8 (≈ 8.4 µM) | 0.125 (≈ 0.131 µM) | 4 (≈ 4.2 µM) |  |  |
| COc1c(NC(=O)c2ccc(NC(=O)c3ccc(NC(=O)[C@H](Cc4c[nH]nn4)NC(=O)c4ccc(NC(=O)/C(C)=C/c5ccc(O)cc5)cc4)cn3)c(OC)c2O)ccc(C(=O)O)c1O [Compound 0, reference compound] | 0.5 | ≤ 0.016 | 0.031 (≈ 0.035 µM) | 0.125 (≈ 0.141 µM) | ≤ 0.016 | 0.031 (≈ 0.035 µM) |  |  |
| COc1c(NC(=O)c2ccc(NC(=O)c3ccc(NC(=O)[C@H](Cc4c[nH]nn4)NC(=O)c4ccc(NC(=O)/C(C)=C/c5ccc(O)cc5)cc4)cc3Cl)c(OC)c2O)ccc(C(=O)O)c1O [Compound 3] | 0.5 | ≤ 0.016 | 0.063 (≈ 0.0685 µM) | 0.5 (≈ 0.544 µM) | ≤ 0.016 |  |  | about as active as the lead structure (0) |
| COc1c(NC(=O)c2ccc(NC(=O)c3ccc(NC(=O)[C@H](Cc4c[nH]nn4)NC(=O)c4ccc(NC(=O)/C(C)=C/c5ccc(O)cc5)cc4)cc3F)c(OC)c2O)ccc(C(=O)O)c1O [Compound 1] | 1 | ≤ 0.016 | 0.125 (≈ 0.138 µM) | 1 (≈ 1.11 µM) | 0.016 (≈ 0.0177 µM) | 0.031 (≈ 0.0343 µM) |  |  |
| CN(C)c1cc(NC(=O)CNC(C)(C)C)c(O)c2c1C[C@H]1C[C@H]3[C@H](N(C)C)C(O)=C(C(N)=O)C(=O)[C@@]3(O)C(O)=C1C2=O [tigecycline] |  |  |  |  |  |  | successful |  |
| colistin |  |  |  |  |  |  | successful |  |
